In assay [1] the target is Cyclin-dependent kinase-like 1 (Homo sapiens) (UniProt Q00532). The experiment in a line: Binding affinity to wild-type human full length CDKL1 (M1 to I358 residues) expressed in mammalian expression system assessed as residual binding level at 10 uM by Kinomescan method relative to control.
Assay [2] addresses Dual specificity mitogen-activated protein kinase kinase 1 (Homo sapiens) (UniProt Q02750). The assay is described as follows: Binding affinity to wild-type human full length MEK1 (M1 to V393 residues) expressed in mammalian expression system assessed as residual binding level at 10 uM by Kinomescan method relative to control.
For assay [3], the target named is Focal adhesion kinase 1 (Homo sapiens) (UniProt Q05397). The assay is described as follows: Binding affinity to wild-type human partial length FAK (D402 to R696 residues) expressed in bacterial expression system assessed as residual binding level at 10 uM by Kinomescan method relative to control.
In assay [4] the target is Myosin light chain kinase family member 4 (Homo sapiens) (UniProt Q86YV6). The assay is described as follows: Binding affinity to wild-type human partial length MYLK4 (V79 to S380 residues) expressed in bacterial expression system assessed as residual binding level at 10 uM by Kinomescan method relative to control.
For assay [5], the target named is Serine/threonine-protein kinase Nek11 (Homo sapiens) (UniProt Q8NG66). The experiment in a line: Binding affinity to wild-type human partial length NEK11 (M1 to E313 residues) expressed in mammalian expression system assessed as residual binding level at 10 uM by Kinomescan method relative to control.
Chain of Serine/threonine-protein kinase Nek11 (Homo sapiens) (Q8NG66 whole entry, the tested form may be a part): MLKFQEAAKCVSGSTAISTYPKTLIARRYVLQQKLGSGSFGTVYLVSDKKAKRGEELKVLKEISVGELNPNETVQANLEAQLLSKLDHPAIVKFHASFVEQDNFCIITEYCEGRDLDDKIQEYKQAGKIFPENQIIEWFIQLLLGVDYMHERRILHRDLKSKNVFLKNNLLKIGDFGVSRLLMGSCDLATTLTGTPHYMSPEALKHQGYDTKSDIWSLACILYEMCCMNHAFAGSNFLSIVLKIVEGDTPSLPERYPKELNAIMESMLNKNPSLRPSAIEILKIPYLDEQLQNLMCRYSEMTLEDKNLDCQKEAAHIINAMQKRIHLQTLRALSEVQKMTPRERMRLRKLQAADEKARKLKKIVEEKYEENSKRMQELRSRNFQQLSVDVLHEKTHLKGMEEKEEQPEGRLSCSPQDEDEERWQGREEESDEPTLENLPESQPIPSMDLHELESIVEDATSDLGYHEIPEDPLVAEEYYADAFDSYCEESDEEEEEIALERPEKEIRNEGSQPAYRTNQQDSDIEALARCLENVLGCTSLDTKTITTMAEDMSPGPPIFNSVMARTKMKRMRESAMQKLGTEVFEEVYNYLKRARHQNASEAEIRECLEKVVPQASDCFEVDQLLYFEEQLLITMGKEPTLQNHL
Assay [6] has as its target cGMP-dependent protein kinase 2 (Homo sapiens) (UniProt Q13237). The assay is described as follows: Binding affinity to wild-type human partial length PRKG2 (S422 to F762 residues) expressed in mammalian expression system assessed as residual binding level at 10 uM by Kinomescan method relative to control.
Assay [7] addresses Atypical kinase COQ8B, mitochondrial (Homo sapiens) (UniProt Q96D53). The assay is described as follows: Binding affinity to wild-type human full length ADCK4 (M1 to S544 residues) expressed in bacterial expression system assessed as residual binding level at 10 uM by Kinomescan method relative to control.
For assay [8], the target named is Proto-oncogene tyrosine-protein kinase receptor Ret (Homo sapiens) (UniProt P07949). The assay is described as follows: Binding affinity to wild-type human partial length RET (E713 to D1014 residues) expressed in bacterial expression system assessed as residual binding level at 10 uM by Kinomescan method relative to control.
Assay [9] deals with Activin receptor type-2A (Homo sapiens) (UniProt P27037). The assay is described as follows: Binding affinity to wild-type human ACVR2A (V171 to T499 residues) expressed in bacterial expression system assessed as residual binding level at 10 uM by Kinomescan method relative to control.
Chain of Activin receptor type-2A (Homo sapiens) (P27037 whole entry, the tested form may be a part): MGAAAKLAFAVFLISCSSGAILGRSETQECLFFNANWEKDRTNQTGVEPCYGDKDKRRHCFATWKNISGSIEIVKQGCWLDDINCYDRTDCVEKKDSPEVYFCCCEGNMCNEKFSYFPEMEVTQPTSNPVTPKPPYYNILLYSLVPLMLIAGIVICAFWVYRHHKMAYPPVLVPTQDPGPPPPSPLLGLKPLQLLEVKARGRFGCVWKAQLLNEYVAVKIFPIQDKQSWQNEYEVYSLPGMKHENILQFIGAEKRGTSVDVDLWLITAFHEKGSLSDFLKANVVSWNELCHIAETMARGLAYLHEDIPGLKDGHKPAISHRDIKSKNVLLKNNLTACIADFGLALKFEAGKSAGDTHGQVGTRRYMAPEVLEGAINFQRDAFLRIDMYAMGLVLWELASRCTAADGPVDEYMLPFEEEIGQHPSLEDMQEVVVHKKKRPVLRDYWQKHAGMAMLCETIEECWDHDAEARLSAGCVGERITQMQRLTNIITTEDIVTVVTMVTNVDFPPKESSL
Assay [10] addresses Dual specificity protein kinase CLK3 (Homo sapiens) (UniProt P49761). The experiment in a line: Binding affinity to wild-type human full length CLK3 (M1 to R490 residues) expressed in bacterial expression system assessed as residual binding level at 10 uM by Kinomescan method relative to control.
Assay [11] deals with Serine/threonine-protein kinase 36 (Homo sapiens) (UniProt Q9NRP7). The assay is described as follows: Binding affinity to wild-type human partial length STK36 (M1 to T271 residues) expressed in bacterial expression system assessed as residual binding level at 10 uM by Kinomescan method relative to control.
Assay [12] relates to Tyrosine-protein kinase ABL1 (Homo sapiens), P00519 [E255K]. The assay is described as follows: Binding affinity to human phosphorylated ABL1 E255K mutant (S229 to K512 residues) expressed in mammalian expression system assessed as residual binding level at 10 uM by Kinomescan method relative to control.
Assay [13] has as its target Serine/threonine-protein kinase MRCK alpha (Homo sapiens) (UniProt Q5VT25). The experiment in a line: Binding affinity to wild-type human partial length MRCKA (L57 to V418 residues) expressed in bacterial expression system assessed as residual binding level at 10 uM by Kinomescan method relative to control.
The subject of assay [14] is eIF-2-alpha kinase GCN2 (Homo sapiens), Q9P2K8 [S808G]. The experiment in a line: Binding affinity to wild-type human partial length GCN2 kinase domain 2 (R585 to T1018 residues) S808G mutant expressed in bacterial expression system assessed as residual binding level at 10 uM by Kinomescan method relative to control.
Assay [15] concerns Mast/stem cell growth factor receptor Kit (Homo sapiens), P10721 [V559D]. The experiment in a line: Binding affinity to human partial length KIT V559D mutant (Y545 to D952 residues) expressed in bacterial expression system assessed as residual binding level at 10 uM by Kinomescan method relative to control.
Assay [16] deals with Ribosomal protein S6 kinase alpha-4 (Homo sapiens) (UniProt O75676). The experiment in a line: Binding affinity to wild-type human partial length C-terminal RPS6KA4 kinase domain 2 (M375 to T705 residues) expressed in mammalian expression system assessed as residual binding level at 10 uM by Kinomescan method relative to control.
In assay [17] the test system is Epidermal growth factor receptor (Homo sapiens), P00533 [G719C]. The experiment in a line: Binding affinity to human partial length EGFR G719C mutant (R669 to V1011 residues) expressed in bacterial expression system assessed as residual binding level at 10 uM by Kinomescan method relative to control.
In assay [18] the test system is Tyrosine-protein kinase ABL1 (Homo sapiens), P00519 [F317L]. The assay is described as follows: Binding affinity to human phosphorylated ABL1 F317L mutant (S229 to K512 residues) expressed in mammalian expression system assessed as residual binding level at 10 uM by Kinomescan method relative to control.
Chain of Tyrosine-protein kinase ABL1 (Homo sapiens), P00519 [F317L] (P00519 whole entry F317L, the tested form may be a part): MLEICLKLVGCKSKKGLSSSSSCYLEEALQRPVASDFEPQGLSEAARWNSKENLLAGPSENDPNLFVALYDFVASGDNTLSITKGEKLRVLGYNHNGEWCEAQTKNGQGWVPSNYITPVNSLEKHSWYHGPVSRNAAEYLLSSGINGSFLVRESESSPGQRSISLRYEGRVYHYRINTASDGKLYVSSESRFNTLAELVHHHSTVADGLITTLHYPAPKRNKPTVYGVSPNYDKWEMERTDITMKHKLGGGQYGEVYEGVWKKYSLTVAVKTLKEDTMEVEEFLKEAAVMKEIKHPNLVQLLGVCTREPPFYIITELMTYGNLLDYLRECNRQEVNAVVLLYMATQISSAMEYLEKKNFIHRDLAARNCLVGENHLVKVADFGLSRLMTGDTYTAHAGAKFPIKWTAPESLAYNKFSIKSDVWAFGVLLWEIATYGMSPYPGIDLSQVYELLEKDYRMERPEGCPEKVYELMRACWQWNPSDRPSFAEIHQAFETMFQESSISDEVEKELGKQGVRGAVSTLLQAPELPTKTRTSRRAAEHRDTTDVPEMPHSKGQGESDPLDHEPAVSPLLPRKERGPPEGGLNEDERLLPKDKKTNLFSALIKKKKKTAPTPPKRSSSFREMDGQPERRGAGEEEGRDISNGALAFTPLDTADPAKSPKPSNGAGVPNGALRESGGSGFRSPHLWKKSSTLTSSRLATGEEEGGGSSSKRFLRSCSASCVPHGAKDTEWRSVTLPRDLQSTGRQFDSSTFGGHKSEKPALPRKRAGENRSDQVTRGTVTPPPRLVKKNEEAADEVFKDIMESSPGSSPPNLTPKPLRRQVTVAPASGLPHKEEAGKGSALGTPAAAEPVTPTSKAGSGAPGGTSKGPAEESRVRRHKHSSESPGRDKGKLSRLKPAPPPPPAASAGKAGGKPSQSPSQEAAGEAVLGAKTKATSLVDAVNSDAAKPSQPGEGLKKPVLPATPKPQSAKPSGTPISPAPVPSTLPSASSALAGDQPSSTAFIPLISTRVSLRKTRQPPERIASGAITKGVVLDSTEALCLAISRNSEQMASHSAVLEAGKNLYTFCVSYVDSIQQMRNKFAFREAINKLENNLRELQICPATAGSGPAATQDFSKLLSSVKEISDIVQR
The target in assay [19] is Dual specificity testis-specific protein kinase 1 (Homo sapiens) (UniProt Q15569). The assay is described as follows: Binding affinity to wild-type human full length TESK1 (R37 to S626 residues) expressed in bacterial expression system assessed as residual binding level at 10 uM by Kinomescan method relative to control.
The target of assay [20] is Serine/threonine-protein kinase MAK (Homo sapiens) (UniProt P20794). The experiment in a line: Binding affinity to wild-type human partial length MAK (M1 to P314 residues) expressed in bacterial expression system assessed as residual binding level at 10 uM by Kinomescan method relative to control.
In assay [21] the target is Serine/threonine-protein kinase MARK2 (Homo sapiens) (UniProt Q7KZI7). The experiment in a line: Binding affinity to wild-type human partial length MARK2 (M1 to R450 residues) expressed in bacterial expression system assessed as residual binding level at 10 uM by Kinomescan method relative to control.
The target of assay [22] is Phosphatidylinositol 4,5-bisphosphate 3-kinase catalytic subunit gamma isoform (Homo sapiens) (UniProt P48736). The assay is described as follows: Binding affinity to wild-type human partial length PIK3CG (S144 to A1102 residues) expressed in mammalian expression system assessed as residual binding level at 10 uM by Kinomescan method relative to control.
Assay [23] deals with Non-receptor tyrosine-protein kinase TYK2 (Homo sapiens) (UniProt P29597). The assay is described as follows: Binding affinity to wild-type human partial length TYK2 JH1 catalytic domain (V877 to C1187 residues) expressed in mammalian expression system assessed as residual binding level at 10 uM by Kinomescan method relative to control.
Chain of Non-receptor tyrosine-protein kinase TYK2 (Homo sapiens) (P29597 whole entry, the tested form may be a part): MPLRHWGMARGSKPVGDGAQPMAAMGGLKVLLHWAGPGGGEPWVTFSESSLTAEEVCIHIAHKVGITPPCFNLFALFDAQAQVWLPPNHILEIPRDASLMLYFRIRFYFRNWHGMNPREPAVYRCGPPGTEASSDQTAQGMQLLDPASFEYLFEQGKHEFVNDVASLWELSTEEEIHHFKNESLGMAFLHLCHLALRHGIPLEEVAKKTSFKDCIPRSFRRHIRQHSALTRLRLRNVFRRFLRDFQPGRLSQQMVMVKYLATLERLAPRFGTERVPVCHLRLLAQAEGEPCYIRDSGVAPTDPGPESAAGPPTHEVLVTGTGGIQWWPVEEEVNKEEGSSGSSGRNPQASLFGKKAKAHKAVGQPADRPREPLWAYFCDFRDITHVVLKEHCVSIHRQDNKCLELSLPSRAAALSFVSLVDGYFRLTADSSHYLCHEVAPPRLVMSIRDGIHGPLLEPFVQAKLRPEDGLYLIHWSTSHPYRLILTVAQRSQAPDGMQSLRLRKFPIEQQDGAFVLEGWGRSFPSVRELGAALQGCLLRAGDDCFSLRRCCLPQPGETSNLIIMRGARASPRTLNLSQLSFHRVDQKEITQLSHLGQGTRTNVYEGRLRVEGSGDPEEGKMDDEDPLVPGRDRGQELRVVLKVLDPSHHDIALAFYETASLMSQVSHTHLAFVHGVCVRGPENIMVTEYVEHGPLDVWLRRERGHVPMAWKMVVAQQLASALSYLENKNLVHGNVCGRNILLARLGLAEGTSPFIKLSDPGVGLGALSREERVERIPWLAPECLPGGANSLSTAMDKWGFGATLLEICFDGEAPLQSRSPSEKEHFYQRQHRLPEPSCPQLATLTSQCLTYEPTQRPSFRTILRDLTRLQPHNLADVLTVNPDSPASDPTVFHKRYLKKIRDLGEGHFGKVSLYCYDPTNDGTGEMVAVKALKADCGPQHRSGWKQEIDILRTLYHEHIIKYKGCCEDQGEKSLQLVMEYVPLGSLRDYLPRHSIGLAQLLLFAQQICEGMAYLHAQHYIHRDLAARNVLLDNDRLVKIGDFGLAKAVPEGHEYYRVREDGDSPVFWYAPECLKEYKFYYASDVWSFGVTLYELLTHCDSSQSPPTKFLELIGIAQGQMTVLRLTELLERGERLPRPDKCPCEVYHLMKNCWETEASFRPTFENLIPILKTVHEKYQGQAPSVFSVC
Assay [24] concerns the target Cyclin-dependent kinase 19 (Homo sapiens) (UniProt Q9BWU1). The experiment in a line: Binding affinity to wild-type human partial length CDK11 (M1 to N360 residues) expressed in bacterial expression system assessed as residual binding level at 10 uM by Kinomescan method relative to control.

SMILES strings stand for the structures.

Chain of Dual specificity mitogen-activated protein kinase kinase 1 (Homo sapiens) (Q02750 whole entry, the tested form may be a part): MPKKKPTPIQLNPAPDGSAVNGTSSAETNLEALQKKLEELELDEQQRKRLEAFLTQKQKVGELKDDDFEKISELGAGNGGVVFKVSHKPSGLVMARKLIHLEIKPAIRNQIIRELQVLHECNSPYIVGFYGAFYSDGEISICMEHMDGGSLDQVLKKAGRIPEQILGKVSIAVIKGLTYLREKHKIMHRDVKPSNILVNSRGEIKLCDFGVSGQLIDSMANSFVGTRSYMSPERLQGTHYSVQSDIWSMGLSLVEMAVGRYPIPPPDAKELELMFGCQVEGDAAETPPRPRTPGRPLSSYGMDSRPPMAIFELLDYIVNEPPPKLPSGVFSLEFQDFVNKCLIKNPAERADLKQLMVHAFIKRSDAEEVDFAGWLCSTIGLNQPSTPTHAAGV
Chain of Atypical kinase COQ8B, mitochondrial (Homo sapiens) (Q96D53 whole entry, the tested form may be a part): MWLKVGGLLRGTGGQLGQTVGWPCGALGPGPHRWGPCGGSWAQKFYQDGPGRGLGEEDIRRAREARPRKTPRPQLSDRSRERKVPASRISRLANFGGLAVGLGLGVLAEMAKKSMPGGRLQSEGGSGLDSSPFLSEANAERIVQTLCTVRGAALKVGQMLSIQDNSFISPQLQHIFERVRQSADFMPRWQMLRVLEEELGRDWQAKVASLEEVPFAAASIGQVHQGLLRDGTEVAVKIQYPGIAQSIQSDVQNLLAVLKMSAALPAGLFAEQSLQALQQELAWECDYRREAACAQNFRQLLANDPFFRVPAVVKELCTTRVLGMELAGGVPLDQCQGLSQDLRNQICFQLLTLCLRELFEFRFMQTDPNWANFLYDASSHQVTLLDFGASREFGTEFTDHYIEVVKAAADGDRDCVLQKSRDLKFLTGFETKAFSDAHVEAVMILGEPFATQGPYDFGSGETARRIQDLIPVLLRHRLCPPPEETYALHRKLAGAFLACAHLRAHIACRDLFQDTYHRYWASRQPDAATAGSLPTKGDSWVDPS
Chain of Dual specificity protein kinase CLK3 (Homo sapiens) (P49761 whole entry, looked up, the tested form may be a part): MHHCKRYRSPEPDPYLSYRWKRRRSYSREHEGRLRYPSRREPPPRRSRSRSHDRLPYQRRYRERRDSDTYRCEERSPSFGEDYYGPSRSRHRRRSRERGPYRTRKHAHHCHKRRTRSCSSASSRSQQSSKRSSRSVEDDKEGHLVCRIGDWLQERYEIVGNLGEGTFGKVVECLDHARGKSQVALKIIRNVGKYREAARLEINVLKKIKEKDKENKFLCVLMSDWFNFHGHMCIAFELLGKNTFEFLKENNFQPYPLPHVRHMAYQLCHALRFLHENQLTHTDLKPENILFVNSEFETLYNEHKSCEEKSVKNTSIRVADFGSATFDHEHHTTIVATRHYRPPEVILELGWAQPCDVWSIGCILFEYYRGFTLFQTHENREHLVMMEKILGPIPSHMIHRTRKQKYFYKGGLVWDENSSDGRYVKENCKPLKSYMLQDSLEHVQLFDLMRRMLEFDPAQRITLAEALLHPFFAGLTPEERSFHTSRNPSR

For `CC(C)N1C(=O)C(NCCCN(C)C)=C(c2cn(C)c3ccccc23)C1=O.Cl`, the Activity in assay [1] turned out to be 73%; in [2] it was 84%; in assay [3] it was 100%; in assay [4], 100%; in [5], 100%; in assay [6], 88%. In addition, the Activity in assay [7] came out at 99%; in assay [8], 98%; in assay [9], 100%; in assay [10], 92%; in assay [11] it was 98%; in assay [12] it was 89%. Further, the Activity was found to be 98% in assay [13]; 100% in [14]; 96% in assay [15]; 74% in [16]; 100% in [17]; 83% in assay [18]. The Activity in assay [19] turned out to be 82%; in assay [20], 100%; in assay [21] it was 93%; in [22] it was 70%; in assay [23] it was 82%; in assay [24], 94%.

These data come from ChEMBL document CHEMBL4304811, “Development of a Water-Soluble Indolylmaleimide Derivative IM-93 Showing Dual Inhibition of Ferroptosis and NETosis” (ACS Med Chem Lett, 2019).
